Measured values from patent publication US10301353B2, “Co-crystal of carfilzomib with maleic acid and process for the preparation of pure carfilzomib” (DR. REDDY'S LABORATORIES LIMITED, priority 2014, dated 2019).

Assays:
[1] = storage stability of amorphous carfilzomib; format: physicochemical; settings: at 2-8° C.
Experimental: Carfilzomib amorphous form obtained according to the process of the present application is stable at 2-8° C. for extended periods, i.e., more than 3 month.

proteasome = settings: in animals; cited from earlier work
[2] = test system: models of multiple myeloma, hematologic, and solid tumors; settings: in animals; cited from earlier work
[3] = test system: solid and hematologic tumor cells; settings: cited from earlier work

stable for extended periods [1] | SMILES | proteasome activity in blood and tissue (proteasome) | tumor growth [2] | activity in vitro in tumor cells [3]
more than 3 month | CC(C)C[C@H](NC(=O)[C@H](CCc1ccccc1)NC(=O)CN1CCOCC1)C(=O)N[C@@H](Cc1ccccc1)C(=O)N[C@@H](CC(C)C)C(=O)[C@@]1(C)CO1 [Carfilzomib amorphous form] | – | – | –
– | CC(C)C[C@H](NC(=O)[C@H](CCc1ccccc1)NC(=O)CN1CCOCC1)C(=O)N[C@@H](Cc1ccccc1)C(=O)N[C@@H](CC(C)C)C(=O)[C@@]1(C)CO1 [Carfilzomib, (2S)—N—((S)-1-((S)-4-methyl-1-((R)-2-methyloxiran-2-yl)-1-oxopentan-2-ylcarbamoyl)-2-phenylethyl)-2-((S)-2-(2-morpholinoacetamido)-4-phenylbutanamido)-4-methylpentanamide] | inhibited proteasome activity | delayed tumor growth | antiproliferative and proapoptotic activities
